Assay results as given in patent US9034922B2, “Composition for maintaining function of platelets” (THE UNIVERSITY OF TOKYO, priority 2010, dated 2015).

Test system: human platelets in laser/hematoporphyrin-induced thrombus formation
Test: Thrombus formation model in NOG mice with biomolecular imaging (injected human platelets)
Type: in vivo, mouse
Settings: Test Example 16; platelets prepared with 15 μM S-45457 and 100 μM CCCP, 37° C., 24 hours, injected into NOG mice
Method: The maintaining effect of the compound (such as S-45457) according to the present invention on the adhesion ability of platelets, particularly adhesion ability of platelets to a blood vessel in vivo, was evaluated using a biomolecular imaging technique and a thrombus formation model developed by the present inventors.
Note that the thrombus formation model used in this Test Example induces thrombus formation as follows. Specifically, reactive oxygen species (ROS) are generated locally in a blood vessel by using laser irradiation along with hematoporphyrin, and so forth. This gives damage to vascular endothelial cells, and thereby platelets adhere to the blood vessel, so that a thrombus is formed. […]
First, platelets were prepared for injection into mice used as a model of thrombus formation. […] After the incubation (in the case of the positive control, without incubation), the number of platelets in the precipitate was counted. […] The suspension was then incubated at room temperature for 15 minutes to label the platelets with fluorescence. […]
Next, the thrombus formation model mouse was prepared. […] Then, platelets labelled with fluorescence as described above were injected into the NOG mouse so that the number of the platelets was 15% of the number of circulating platelets. […]

For `CC#CCOc1ccc(S(=O)(=O)CC(c2ccc(CNS(C)(=O)=O)cc2)N(O)C=O)cc1` (stereo not shown) [Compound I-4, N-{4-[2-(4-But-2-ynyloxybenzenesulfonyl)-1-(formylhydroxyamino)ethyl]benzyl}methanesulfonamide], the “percentage of the human-derived platelets contributing to the thrombus formation” value was “higher than that of the negative control”.
